Assay results published in patent US11679984B2, “Composite sols” (Prebona AB, priority 2016, dated 2023).

Tested on: fungal growth
Assay: Biocidal function: fungal growth on brushed bread slices
Assay type: cell-based, fungi
Settings: French bread slices brushed on all sides, 14 days, dark, 18-20° C.
Text: In this example the following solutions/materials were used: • 1. Deionized water • 2. Solution CuCl2.2H2O in deionized water, 571 ppm Cu • 3. Solution CuCl2.2H2O in deionized water, 1286 ppm Cu • 4. Cu containing sol of example 5 in Table 7a, 571 ppm Cu • 5. Cu containing sol of example 6 in Table 7a, 1286 ppm Cu
Slices of French bread from a local baker were used as substrates for fungal growth. The bread slices were as brushed on all sides with solutions 1-5. The bread slices on dinner plates were put in plastic bags (one slice on a plate to a bag), which were in a dark, closed room where the temperature varied between 18 and 20° C. over the day. After 14 days, the untreated bread slice was severely befouled and the slice seemed to be completely invaded by fungi.

Q: For O.O.[Cl-].[Cl-].[Cu+2] [Cu solution containing 1286 ppm Cu, CuCl2.2H2O], which “Fungal growth on treated bread slice” value is on record?
A: Only little fungal growth

Tested on: not given
Assay: not given
Settings: 20° C.; cited from earlier work

Q: With Cd(OH)2 as the compound, how does the Aqueous solubility read?
A: 18 µM

Q: With Cu(OH)2 as the compound, how does the Aqueous solubility read?
A: 0.17 µM

Q: For Fe(OH)2, which Aqueous solubility is on record?
A: 5.8 µM

Q: With Fe(OH)3 as the compound, how does the Aqueous solubility read?
A: 0.0002 µM

Q: Which Aqueous solubility does the source give for Gd(OH)3 here?
A: 0.52 µM

Q: For Pb(OH)2, which Aqueous solubility is on record?
A: 6.7 µM
